Key:
[1] = MTT assay in H1299 cells; format: cell-based; conditions: human, H1299 cells (H1299/PhTERT-driven SEAP reporter system), H1299, read-out: MTT (Inhibition μM ± SD); for viability at 24 h, 1 µM: compound concentration 1 μM; for viability at 24 h, 10 µM: compound concentration 10 μM; for viability at 24 h, 100 µM: compound concentration 100 μM
Experimental: H1299 is a non-small cell lung cancer cell line with telomerase activity. The cell extract of H1299 cell lines can be used for selecting the telomerase activity inhibitors in vitro and the telomerase activity-inhibited substances in vivo. H1299 cell line was incubated with RPMI 1640 medium supplemented with 10% of fetal bovine serum (FBS). A total of 2×10^3 […] cells were seeded in the 96-well cell culture plate, and incubated with DMEM (GIBCO®)/glucose mixture and Medium 199 (GIBCO®)/10% FBS/1 mM sodium pyruvate (GIBCO®)/4 mM L-glutamine (GIBCO®) mixture at a ratio of 4:1 at 37° C. for 24 hours. […] After 48 hours of drug treatment, the cultured medium were collected for performing the analysis of SEAP activity. The cells were washed with 1×PBS once immediately, and the MTT assay was performed to compare the compounds with the relative toxicity or the influence to the proliferation and activity. Mitochondria is the place for cellular respiration, and there are many reductive reactions catalyzed by dehydrogenases. MTT is a water-soluble yellow compound, and the […] will be formed after reduction. This crystal can be dissolved in the organic solvent, and has high absorbance at the wavelength of 570 nm. The higher cellular activity or more cell numbers, the more generated crystal violets. Therefore, the cellular activity and cell number can be obtained by the MTT assay. MTT solution was prepared by dissolving MTT powder in PBS solution to achieve 5 mg/ml, filtrated and stored at 4° C. Lysis buffer contained 20% (w/v) of SDS in 50% of N,N-dimethylformamide (DMF, Riedel-deHaën). After the cells were incubated in the 96-well culture plate, the original medium was discarded, 100 μl of the fresh serum-free medium per well and 25 μl of MTT solution per well were added in respectively, and the cells were further incubated in the CO2 incubator at 37° C. for 4 hours. Then, 100 μl of lysis buffer per well was added in and incubated overnight in the CO2 incubator at 37° C. The absorbance at 570 nm was determined by the ELISA reader. The selection of telomerase inhibitors of the anthraquinone compounds provided in the present invention was performed by the […]-driven SEAP system. SEAP is the communication gene in this drug selection model. The SEAP inhibition was shown as follows. […] Subsequently, the linear slope of absorbance to the measuring time was calculated, and the variance of absorbance at 405 nm per minute was represented and compared with the SEAP-producing result of drug-untreated H1299 cells. In addition, the influence of the cell-treated drug solution to the cellular proliferation and the drug toxicity to the cells were considered, and the cellular growth was evaluated by the MTT assay. The drug-treated cells were analyzed by the SEAP assay and the data analysis of MTT assay at the same time. Both results were compared so as to delete the influence of cell number or the activity to SEAP, and the dose-dependent phenomenon could be anticipated in the range of drug concentration designed by the laboratory. […] Since the chemically-synthetic drugs have colors thereon, the SEAP value of drug-treatment without cells was also determined to be the background value which was deducted while treating with the drugs. The candidate drug for inhibiting telomerase on the hTERT gene expression level was evaluated and anticipated.

[2] = MTT assay in BJ1 cells; format: cell-based; conditions: human, hTERT-BJ1-PTERT(3.4)-SEAP cells, BJ1, read-out: MTT (Inhibition μM ± SD); for viability at 48 h, 1 µM: compound concentration 1 μM; for viability at 48 h, 10 µM: compound concentration 10 μM; for viability at 48 h, 100 µM: compound concentration 100 μM
Experimental: A total of 2×10^3 […] cells were seeded in the 96-well cell culture plate, and incubated with DMEM (GIBCO®)/glucose mixture and Medium 199 (GIBCO®)/10% FBS/1 mM sodium pyruvate (GIBCO®)/4 mM L-glutamine (GIBCO®) mixture at a ratio of 4:1 at 37° C. for 24 hours. […] After 48 hours of drug treatment, the cultured medium were collected for performing the analysis of SEAP activity. The cells were washed with 1×PBS once immediately, and the MTT assay was performed to compare the compounds with the relative toxicity or the influence to the proliferation and activity. Mitochondria is the place for cellular respiration, and there are many reductive reactions catalyzed by dehydrogenases. MTT is a water-soluble yellow compound, and the […] will be formed after reduction. This crystal can be dissolved in the organic solvent, and has high absorbance at the wavelength of 570 nm. The higher cellular activity or more cell numbers, the more generated crystal violets. Therefore, the cellular activity and cell number can be obtained by the MTT assay. MTT solution was prepared by dissolving MTT powder in PBS solution to achieve 5 mg/ml, filtrated and stored at 4° C. Lysis buffer contained 20% (w/v) of SDS in 50% of N,N-dimethylformamide (DMF, Riedel-deHaën). After the cells were incubated in the 96-well culture plate, the original medium was discarded, 100 μl of the fresh serum-free medium per well and 25 μl of MTT solution per well were added in respectively, and the cells were further incubated in the CO2 incubator at 37° C. for 4 hours. Then, 100 μl of lysis buffer per well was added in and incubated overnight in the CO2 incubator at 37° C. The absorbance at 570 nm was determined by the ELISA reader.

O=C(CCN1CCNCC1)Nc1ccc2c(c1)C(=O)c1cc(NC(=O)CCN3CCNCC3)ccc1C2=O [Compound 24, 2,7-Bis[3-(piperazino)propionamido]anthraquinone]
viability at 24 h, 1 µM [1]: 97 ± 8%
viability at 24 h, 10 µM [1]: 94 ± 8%
viability at 24 h, 100 µM [1]: 102 ± 13%
viability at 48 h, 1 µM [2]: 96 ± 2%
viability at 48 h, 10 µM [2]: 100 ± 3%
viability at 48 h, 100 µM [2]: 88 ± 4%

O=C(CCCCl)Nc1ccc2c(c1)C(=O)c1cc(NC(=O)CCCCl)ccc1C2=O [Compound 25, 2,7-Bis(4-chlorobutyramido)anthraquinone]
viability at 24 h, 1 µM [1]: 84 ± 18%
viability at 24 h, 10 µM [1]: 40 ± 2%
viability at 24 h, 100 µM [1]: 22 ± 2%
viability at 48 h, 1 µM [2]: 72 ± 3%
viability at 48 h, 10 µM [2]: 62 ± 2%
viability at 48 h, 100 µM [2]: 58 ± 3%

O=C1c2ccc(NC(=O)C3CC3)cc2C(=O)c2cc(NC(=O)C3CC3)ccc21 [Compound 32, 2,7-Bis(cyclopropanecarbonamido)anthraquinone]
viability at 24 h, 1 µM [1]: 46 ± 14%
viability at 24 h, 10 µM [1]: 36 ± 13%
viability at 24 h, 100 µM [1]: 43 ± 15%
viability at 48 h, 1 µM [2]: 60 ± 6%
viability at 48 h, 10 µM [2]: 44 ± 10%
viability at 48 h, 100 µM [2]: 47 ± 2%

CN(C)CC(=O)Nc1ccc2c(c1)C(=O)c1cc(NC(=O)CN(C)C)ccc1C2=O [Compound 8, 2,7-Bis[2-(dimethylamino)acetamido]anthraquinone]
viability at 24 h, 1 µM [1]: 92 ± 13%
viability at 24 h, 10 µM [1]: 55 ± 9%
viability at 24 h, 100 µM [1]: 15 ± 12%
viability at 48 h, 1 µM [2]: 96 ± 3%
viability at 48 h, 10 µM [2]: 45 ± 1%
viability at 48 h, 100 µM [2]: 39 ± 1%

O=C(CCc1ccccc1)Nc1ccc2c(c1)C(=O)c1cc(NC(=O)CCc3ccccc3)ccc1C2=O [Compound 31, 2,7-Bis(phenylpropionamido)anthraquinone]
viability at 24 h, 1 µM [1]: 102 ± 11%
viability at 24 h, 10 µM [1]: 94 ± 13%
viability at 24 h, 100 µM [1]: 76 ± 18%
viability at 48 h, 1 µM [2]: 89 ± 2%
viability at 48 h, 10 µM [2]: 44%
viability at 48 h, 100 µM [2]: 44 ± 1%

CC(C)CNCC(=O)Nc1ccc2c(c1)C(=O)c1cc(NC(=O)CNCC(C)C)ccc1C2=O [Compound 14, 2,7-Bis[2-(isobutylamino)acetamido]anthraquinone]
viability at 24 h, 1 µM [1]: 108 ± 8%
viability at 24 h, 10 µM [1]: 39 ± 10%
viability at 24 h, 100 µM [1]: 11 ± 5%
viability at 48 h, 1 µM [2]: 107 ± 3%
viability at 48 h, 10 µM [2]: 37%
viability at 48 h, 100 µM [2]: 39%

CN(C)CCC(=O)Nc1ccc2c(c1)C(=O)c1cc(NC(=O)CCN(C)C)ccc1C2=O [Compound 20, 2,7-Bis[3-(dimethylamino)propionamido]anthraquinone]
viability at 24 h, 1 µM [1]: 1 ± 104%
viability at 24 h, 10 µM [1]: 53 ± 13%
viability at 24 h, 100 µM [1]: 1 ± 1%
viability at 48 h, 1 µM [2]: 94 ± 7%
viability at 48 h, 10 µM [2]: 30 ± 14%
viability at 48 h, 100 µM [2]: 22 ± 13%

CCCCNCCC(=O)Nc1ccc2c(c1)C(=O)c1cc(NC(=O)CCNCCCC)ccc1C2=O [Compound 17, 2,7-Bis[3-(butylamino)propionamido]anthraquinone]
viability at 24 h, 1 µM [1]: 82 ± 12%
viability at 24 h, 10 µM [1]: 52 ± 4%
viability at 24 h, 100 µM [1]: 14 ± 10%
viability at 48 h, 1 µM [2]: 80 ± 3%
viability at 48 h, 10 µM [2]: 70 ± 1%
viability at 48 h, 100 µM [2]: 40%

O=C1c2ccc(NC(=O)C3CCCCC3)cc2C(=O)c2cc(NC(=O)C3CCCCC3)ccc21 [Compound 34, 2,7-Bis(cyclohexanecarbonamido)anthraquinone]
viability at 24 h, 1 µM [1]: 90 ± 3%
viability at 24 h, 10 µM [1]: 63 ± 13%
viability at 24 h, 100 µM [1]: 52 ± 16%
viability at 48 h, 1 µM [2]: 87 ± 2%
viability at 48 h, 10 µM [2]: 76 ± 3%
viability at 48 h, 100 µM [2]: 64 ± 2%

CCCNCCC(=O)Nc1ccc2c(c1)C(=O)c1cc(NC(=O)CCNCCC)ccc1C2=O [Compound 21, 2,7-Bis[3-(propylamino)propionamido]anthraquinone]
viability at 24 h, 1 µM [1]: 80 ± 15%
viability at 24 h, 10 µM [1]: 50 ± 6%
viability at 24 h, 100 µM [1]: 13 ± 10%
viability at 48 h, 1 µM [2]: 75 ± 1%
viability at 48 h, 10 µM [2]: 65 ± 2%
viability at 48 h, 100 µM [2]: 38 ± 2%

CN1CCN(CCC(=O)Nc2ccc3c(c2)C(=O)c2cc(NC(=O)CCN4CCN(C)CC4)ccc2C3=O)CC1 [Compound 23, 2,7-Bis[3-(N-methylpiperazino)propionamido]anthraquinone]
viability at 24 h, 1 µM [1]: 95 ± 18%
viability at 24 h, 10 µM [1]: 80 ± 15%
viability at 24 h, 100 µM [1]: 39 ± 6%
viability at 48 h, 1 µM [2]: 95 ± 2%
viability at 48 h, 10 µM [2]: 80 ± 2%
viability at 48 h, 100 µM [2]: 61 ± 1%

CCN(CC)CCC(=O)Nc1ccc2c(c1)C(=O)c1cc(NC(=O)CCN(CC)CC)ccc1C2=O [Compound 16, 2,7-Bis[3-(diethylamino)propionamido]anthraquinone]
viability at 24 h, 1 µM [1]: 106 ± 15%
viability at 24 h, 10 µM [1]: 41 ± 20%
viability at 24 h, 100 µM [1]: 1 ± 1%
viability at 48 h, 1 µM [2]: 103 ± 2%
viability at 48 h, 10 µM [2]: 55 ± 3%
viability at 48 h, 100 µM [2]: 36 ± 1%

CCCNCC(=O)Nc1ccc2c(c1)C(=O)c1cc(NC(=O)CNCCC)ccc1C2=O [Compound 9, 2,7-Bis[2-(propylamino)acetamido]anthraquinone]
viability at 24 h, 1 µM [1]: 89 ± 15%
viability at 24 h, 10 µM [1]: 54 ± 11%
viability at 24 h, 100 µM [1]: 14 ± 10%
viability at 48 h, 1 µM [2]: 96 ± 3%
viability at 48 h, 10 µM [2]: 44%
viability at 48 h, 100 µM [2]: 42 ± 1%

CN1CCN(CC(=O)Nc2ccc3c(c2)C(=O)c2cc(NC(=O)CN4CCN(C)CC4)ccc2C3=O)CC1 [Compound 11, 2,7-Bis[2-(N-methylpiperazino)acetamido]anthraquinone]
viability at 24 h, 1 µM [1]: 90 ± 14%
viability at 24 h, 10 µM [1]: 71 ± 4%
viability at 24 h, 100 µM [1]: 37 ± 6%
viability at 48 h, 1 µM [2]: 86 ± 1%
viability at 48 h, 10 µM [2]: 69 ± 1%
viability at 48 h, 100 µM [2]: 47 ± 3%

O=C(CCl)Nc1ccc2c(c1)C(=O)c1cc(NC(=O)CCl)ccc1C2=O [Compound 3, 2,7-bis(chloroacetamido)anthraquinone]
viability at 24 h, 1 µM [1]: 58 ± 44%
viability at 24 h, 10 µM [1]: 5 ± 3%
viability at 24 h, 100 µM [1]: 1%
viability at 48 h, 1 µM [2]: 105 ± 2%
viability at 48 h, 10 µM [2]: 89 ± 3%
viability at 48 h, 100 µM [2]: 88 ± 2%

O=C(Cc1ccccc1)Nc1ccc2c(c1)C(=O)c1cc(NC(=O)Cc3ccccc3)ccc1C2=O [Compound 30, 2,7-Bis(phenylacetamido)anthraquinone]
viability at 24 h, 1 µM [1]: 106 ± 12%
viability at 24 h, 10 µM [1]: 96 ± 17%
viability at 24 h, 100 µM [1]: 75 ± 22%
viability at 48 h, 1 µM [2]: 93 ± 2%
viability at 48 h, 10 µM [2]: 80 ± 3%
viability at 48 h, 100 µM [2]: 86 ± 4%

Source: patent publication US20090253709A1 (NATIONAL DEFENSE MEDICAL CENTER, priority 2008, published 2009)
